Test results: article PMC10739838, “Limited high-throughput screening compatibility of the phenuivirus cap-binding domain” (Scientific Reports, 2023)
Several values for one entry are separate records, joined by “and”; a condition that tells them apart may be missing. Equal values may be shown once. Read-outs that look alike come from different tables or passages of the source.

How the values were obtained:
SFTSV CBD [1] = target: T1, SFTSV CBD (Dabie bandavirus, UniProt I0DF35); format: binding
T1 sequence (I0DF35 1695-1810 limits assumed): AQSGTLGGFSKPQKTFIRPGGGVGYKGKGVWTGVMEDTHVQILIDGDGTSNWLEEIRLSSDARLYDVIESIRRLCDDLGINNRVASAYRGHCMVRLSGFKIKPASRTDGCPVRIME

SFTSV CBD [2] = target: T1, SFTSV CBD; format: binding; remark: listed apart in the source
human eIF4E = human eIF4E (Homo sapiens, UniProt P06730); format: binding
Chain of human eIF4E (P06730 whole entry): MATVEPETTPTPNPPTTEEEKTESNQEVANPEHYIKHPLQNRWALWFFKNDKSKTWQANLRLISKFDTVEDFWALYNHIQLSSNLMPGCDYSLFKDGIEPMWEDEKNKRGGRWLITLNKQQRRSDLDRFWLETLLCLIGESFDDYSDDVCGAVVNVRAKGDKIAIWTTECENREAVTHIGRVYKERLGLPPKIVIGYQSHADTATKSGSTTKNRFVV

SFTSV CBD [3] = target: T1, SFTSV CBD; format: binding; remark: listed apart in the source
SFTSV CBD [4] = target: T1, SFTSV CBD; details: cited from earlier work
RVFV CBD [5] = target: T2, RVFV CBD (Rift valley fever virus, UniProt P27316); details: cited from earlier work
T2 sequence (P27316 1706-1822 limits assumed): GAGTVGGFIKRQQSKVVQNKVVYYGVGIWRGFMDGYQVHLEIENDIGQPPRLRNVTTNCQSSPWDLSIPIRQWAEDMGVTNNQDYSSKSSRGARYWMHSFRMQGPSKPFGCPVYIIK

PB2 CBD = PB2 CBD (Influenza A virus, UniProt P31345)
Chain of PB2 CBD (P31345 318-483 limits assumed): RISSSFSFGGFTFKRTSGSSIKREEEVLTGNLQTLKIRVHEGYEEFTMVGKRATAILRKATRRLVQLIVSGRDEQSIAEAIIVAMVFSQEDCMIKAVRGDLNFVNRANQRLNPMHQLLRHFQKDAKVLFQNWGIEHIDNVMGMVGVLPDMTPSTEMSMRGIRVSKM

SFTSV CBD [6] = target: T1, SFTSV CBD; details: cited from earlier work; remark: listed apart in the source
SFTSV CBD [7] = target: T1, SFTSV CBD; format: binding; remark: listed apart in the source
RVFV CBD [8] = target: T2, RVFV CBD; format: binding

Row | SMILES | Kd (SFTSV CBD [1]) | Kd (SFTSV CBD [2]) | Effect on thermal stability of the protein (SFTSV CBD [4]) | Effect on thermal stability of the protein (RVFV CBD [5]) | also measured
1 | Nc1ncnc2c1ncn2[C@@H]1O[C@H](COP(=O)(O)OP(=O)(O)OP(=O)(O)O)[C@@H](O)[C@H]1O [ATP] | 20000 µM |  |  |  | 
2 | CC[N+]1=C(/C=C/C=C/C=C2/N(CCCCCC(=O)NCCNC(=O)O[C@@H]3[C@H](O)[C@@H](COP(=O)(O)OP(=O)(O)OP(=O)([O-])O)O[C@H]3n3c[n+](C)c4c(=O)[nH]c(N)nc43)c3ccc(S(=O)(=O)O)cc3C2(C)C)C(C)(C)c2cc(S(=O)(=O)[O-])ccc21 [EDA-m^7GTP-Cy5] |  | 55 µM and 32 µM and 36 µM |  |  | Kd (human eIF4E): 0.036 µM and 0.033 µM and 0.028 µM
3 | Nc1nc2c(ncn2[C@@H]2O[C@H](COP(=O)(O)OP(=O)(O)OP(=O)(O)O)[C@@H](O)[C@H]2O)c(=O)[nH]1 [GTP] | 20000 µM |  | not | not | SPR signal on injection of increasing concentrations (SFTSV CBD [3]): did not result in a dose-dependent signal increase
4 | CC[N+]1=C(/C=C/C=C/C=C2/N(CCCCCC(=O)NCCOCCOCCOCCOCCC(=O)Nc3ccc(OP(=O)([O-])OP(=O)(O)OP(=O)(O)OC[C@H]4O[C@@H](n5c[n+](C)c6c(=O)[nH]c(N)nc65)[C@H](O)[C@@H]4O)cc3)c3ccc(S(=O)(=O)O)cc3C2(C)C)C(C)(C)c2cc(S(=O)(=O)[O-])ccc21 [m^7GTP-γ-aminophenyl-PEG4-Cy5] |  | 106 µM |  |  | 
5 | Cn1c[n+]([C@@H]2O[C@H](COP(=O)([O-])OP(=O)(O)OP(=O)(O)O)[C@@H](O)[C@H]2O)c2nc(N)[nH]c(=O)c21 [m^7GTP] | ~6000 µM and 6100 µM and 10700 µM |  | higher thermal stability | higher thermal stability | Kd (SFTSV CBD [3]): ~1000 µM; Kd (PB2 CBD): 2.8 µM; Kd (SFTSV CBD [6]): 138 µM
6 | O=C(O)[C@H]1C2CCC(CC2)[C@@H]1Nc1nc(-c2c[nH]c3ncc(F)cc23)ncc1F [pimodivir] |  |  |  |  | Effect on thermal stability of the protein (SFTSV CBD [7]): destabilization of the protein; Effect on thermal stability of the protein (RVFV CBD [8]): destabilization of the protein
